Results on 15 compounds are retold here after patent US12600717B2, “Tricyclic compounds as inhibitors of KRAS” (Incyte Corporation, priority 2021, dated 2026).

The IC50 is the midpoint of a concentration-inhibition curve.

One experiment has as its target KRAS G12D (Homo sapiens, UniProt P01116, G12D). As to the kind of experiment: GDP-GTP exchange assay (bodipy-GDP/GppNHp, SOS1), KRAS G12D. It is filed as biochemical. The following applies: bodipy-loaded KRAS G12D 2.5 nM, 4 hours pre-incubation with inhibitor, 2 hours after GppNHp/SOS1; read-out: G12D_exchange IC50. The method, then:
(§1) The inhibitor potency of the exemplified compounds was determined in a fluorescence based guanine nucleotide exchange assay, which measures the exchange of bodipy-GDP (fluorescently labeled GDP) for GppNHp (Non-hydrolyzable GTP analog) to generate the active state of KRAS in the presence of SOS1 (guanine nucleotide exchange factor). Inhibitors were serially diluted in DMSO and a volume of 0.1 μL was transferred to the wells of a black low volume 384-well plate. 5 μL/well volume of bodipy-loaded KRAS G12D diluted to 2.5 nM in assay buffer (25 mM Hepes pH 7.5, 50 mM NaCl, 10 mM MgCl2 and 0.01% Brij-35) was added to the plate and pre-incubated with inhibitor for 4 hours at ambient temperature. Appropriate controls (enzyme with no inhibitor or with a G12D inhibitor) were included on the plate. The exchange was initiated by the addition of a 5 μL/well volume containing 1 mM GppNHp and 300 nM SOS1 in assay buffer. The 10 μL/well reaction concentration of the bodipy-loaded KRAS G12D, GppNHp, and SOS1 were 2.5 nM, 500 uM, and 150 nM, respectively. The reaction plates were incubated at ambient temperature for 2 hours, a time estimated for complete GDP-GTP exchange in the absence of inhibitor. For the KRAS G12V mutant, similar guanine nucleotide exchange assays were used with 2.5 nM as final concentration for the bodipy loaded KRAS proteins and 3 hours incubation after adding GppNHp-SOS1 mixture. A cyclic peptide described to selectively bind G12D mutant (Sakamoto et al., BBRC 484.3 (2017), 605-611) or internal compounds with confirmed binding were used as positive controls in the assay plates. Fluorescence intensities were measured on a PheraStar plate reader instrument (BMG Labtech) with excitation at 485 nm and emission at 520 nm.
(§2) Either GraphPad prism or Genedata Screener SmartFit was used to analyze the data. The IC50 values were derived by fitting the data to a four parameter logistic equation producing a sigmoidal dose-response curve with a variable Hill coefficient.
(§3) The symbol “†” indicates IC50≤100 nM, “††” indicates IC50>100 nM but ≤1 μM; and “†††” indicates IC50 is >1 μM but ≤5 μM, “††††” indicates IC50 is >5 μM but ≤10 μM. “NA” indicates IC50 not available.

The target of the next experiment is KRAS G12V (Homo sapiens, UniProt P01116, G12V). As to the kind of experiment: GDP-GTP exchange assay (bodipy-GDP/GppNHp, SOS1), KRAS G12V. It is filed as biochemical. The note with it: bodipy-loaded KRAS G12V 2.5 nM, 3 hours incubation after adding GppNHp-SOS1; read-out: G12V_exchange IC50. How it is done:
as §1, §2, §3

SMILES strings stand for the structures. Some results are limits rather than exact numbers.

KRAS G12V, sequence (P01116 1-188 isoform P01116-2 G12V): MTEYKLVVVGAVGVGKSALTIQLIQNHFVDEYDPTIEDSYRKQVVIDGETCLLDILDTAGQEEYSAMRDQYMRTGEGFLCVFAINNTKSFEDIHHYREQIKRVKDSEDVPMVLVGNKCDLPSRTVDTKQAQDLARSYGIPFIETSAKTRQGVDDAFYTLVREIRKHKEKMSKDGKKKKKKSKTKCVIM
KRAS G12D, sequence (P01116 1-188 isoform P01116-2 G12D): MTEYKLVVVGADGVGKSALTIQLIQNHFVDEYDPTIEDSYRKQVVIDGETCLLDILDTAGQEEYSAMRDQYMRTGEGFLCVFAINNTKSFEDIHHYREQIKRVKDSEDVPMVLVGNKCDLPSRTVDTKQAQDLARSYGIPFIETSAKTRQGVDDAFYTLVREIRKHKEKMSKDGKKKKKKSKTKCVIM

Regarding `Cc1cc2c(nc(N3CC(N(C)C)C3)c3nc(CCC(=O)N4CCN(c5ncccn5)CC4)n(C4C5CNC4C5)c32)c(F)c1-c1cc(O)cc2ccccc12` (single isomer, unassigned) [Example 2a, 3-(1-((endo)-2-azabicyclo[2.1.1]hexan-5-yl)-4-(3-(dimethylamino)azetidin-1-yl)-6-fluoro-7-(3-hydroxynaphthalen-1-yl)-8-methyl-1H-imidazo[4,5-c]quinolin-2-yl)-1-(4-(pyrimidin-2-yl)piperazin-1-yl)propan-1-one], the values for the IC50 on KRAS G12D and on KRAS G12V were at most 0.1 µM and 1 to 5 µM, respectively.
For `C[C@H](Oc1nc2c(F)c(-c3cccc4cccc(C#N)c34)c(Cl)cc2c2c1ncn2[C@H]1CCN(C(=O)C2CC2)[C@H](CC#N)C1)[C@@H]1CCCN1C` [Example 43, 8-(8-chloro-1-((2S,4S)-2-(cyanomethyl)-1-(cyclopropanecarbonyl)piperidin-4-yl)-6-fluoro-4-((S)-1-((S)-1-methylpyrrolidin-2-yl)ethoxy)-1H-imidazo[4,5-c]quinolin-7-yl)-1-naphthonitrile], in that order: at most 0.1 µM and 0.1 to 1 µM.
In the case of `CN(C)C1CN(c2nc3c(F)c(-c4cc(O)cc5ccccc45)c(CCC#N)cc3c3c2nc(CCc2ncccn2)n3C2C3CNC2C3)C1` (single isomer, unassigned) [Example 37, 3-(1-((endo)-2-azabicyclo[2.1.1]hexan-5-yl)-4-(3-(dimethylamino)azetidin-1-yl)-6-fluoro-7-(3-hydroxynaphthalen-1-yl)-2-(2-(pyrimidin-2-yl)ethyl)-1H-imidazo[4,5-c]quinolin-8-yl)propanenitrile], the IC50 at KRAS G12D and at KRAS G12V was at most 0.1 µM each time.
In the case of `CN(C)C1CN(c2nc3c(F)c(-c4cc(O)cc5ccccc45)c(CCC#N)cc3c3c2nc(CCC(=O)N2CC4(CCOCC4)C2)n3C2C3CNC2C3)C1` (single isomer, unassigned) [Example 3a, 3-(1-((endo)-2-azabicyclo[2.1.1]hexan-5-yl)-4-(3-(dimethylamino)azetidin-1-yl)-6-fluoro-7-(3-hydroxynaphthalen-1-yl)-2-(3-oxo-3-(7-oxa-2-azaspiro[3.5]nonan-2-yl)propyl)-1H-imidazo[4,5-c]quinolin-8-yl)propanenitrile], the IC50 on KRAS G12D and at KRAS G12V was at most 0.1 µM each time.
`CN(C)C(=O)CCc1nc2c(N3CC(N(C)C)C3)nc3c(F)c(-c4c(O)ccc(Cl)c4Cl)c(CCC#N)cc3c2n1C1C2CNC1C2` (centres unmarked) [Example 10, 3-(1-(2-azabicyclo[2.1.1]hexan-5-yl)-8-(2-cyanoethyl)-7-(2,3-dichloro-6-hydroxyphenyl)-4-(3-(dimethylamino)azetidin-1-yl)-6-fluoro-1H-imidazo[4,5-c]quinolin-2-yl)-N,N-dimethylpropanamide]: the figures for the IC50 on KRAS G12D and on KRAS G12V were at most 0.1 µM and 0.1 to 1 µM, respectively.
Turning to `CC(=O)N1CCCC(c2nc3c(N4CC(N(C)C)C4)nc4c(F)c(-c5cc(O)cc6ccccc56)c(C)cc4c3n2C2C3CNC2C3)C1` (single isomer, unassigned) [Example 1a, 1-(3-(1-((endo)-2-azabicyclo[2.1.1]hexan-5-yl)-4-(3-(dimethylamino)azetidin-1-yl)-6-fluoro-7-(3-hydroxynaphthalen-1-yl)-8-methyl-1H-imidazo[4,5-c]quinolin-2-yl)piperidin-1-yl)ethan-1-one], the 50% inhibitory concentration (IC50) on KRAS G12D lay within 0.1 to 1 µM.
Turning to `CN(C)C(=O)CCc1nc2c(N3CC(N(C)C)C3)nc3c(-c4cnn(-c5ccccn5)c4)c(-c4cc(O)cc5ccccc45)c(CCC#N)cc3c2n1C1C2CNC1C2` (stereo not drawn) [Example 13, 3-(1-((endo)-2-azabicyclo[2.1.1]hexan-5-yl)-8-(2-cyanoethyl)-4-(3-(dimethylamino)azetidin-1-yl)-7-(3-hydroxynaphthalen-1-yl)-6-(1-(pyridin-2-yl)-1H-pyrazol-4-yl)-1H-imidazo[4,5-c]quinolin-2-yl)-N,N-dimethylpropanamide], the IC50 on KRAS G12D was in the range of 0.1 to 1 µM; on KRAS G12V it was 5 to 10 µM.
For `CCc1nc2c(Oc3ccccc3)nc3c(F)c(-c4cc(O)cc5ccccc45)c(CCC#N)cc3c2n1C1C2CNC1C2` (single isomer, unassigned) [Example 24a, 3-(1-((endo)-2-Azabicyclo[2.1.1]hexan-5-yl)-2-ethyl-6-fluoro-7-(3-hydroxynaphthalen-1-yl)-4-phenoxy-1H-imidazo[4,5-c]quinolin-8-yl)propanenitrile], in that order: at most 0.1 µM and 0.1 to 1 µM.
For `CN(C)C(=O)CCc1nc2c(N3CC(N(C)C)C3)nc3c(-c4cccc(C#N)c4)c(-c4cc(O)cc5ccccc45)c(CCC#N)cc3c2n1[C@@H]1[C@@H]2CN[C@H]1C2` (relative stereo) [Example 12, 3-(1-((endo)-2-azabicyclo[2.1.1]hexan-5-yl)-8-(2-cyanoethyl)-6-(3-cyanophenyl)-4-(3-(dimethylamino)azetidin-1-yl)-7-(3-hydroxynaphthalen-1-yl)-1H-imidazo[4,5-c]quinolin-2-yl)-N,N-dimethylpropanamide], in that order: 0.1 to 1 µM and 5 to 10 µM.
For `CN(C)C(=O)CCc1nc2c(N3CC(N(C)C)C3)nc3c(F)c(-c4cc(O)cc5ccccc45)cc(CN4CCC(C#N)C4)c3c2n1C1C2CNC1C2` (stereo not drawn) [Example 16, 3-(1-((endo)2-azabicyclo[2.1.1]hexan-5-yl)-9-((3-cyanopyrrolidin-1-yl)methyl)-4-(3-(dimethylamino)azetidin-1-yl)-6-fluoro-7-(3-hydroxynaphthalen-1-yl)-1H-imidazo[4,5-c]quinolin-2-yl)-N,N-dimethylpropanamide], in that order: 0.1 to 1 µM and 5 to 10 µM.
For `CCc1nc2c(N3CC(N(C)C)C3)nc3c(F)c(-c4cc(O)cc5ccccc45)c(C(CC#N)n4cc(CO)cn4)cc3c2n1C1C2CNC1C2` (single isomer, unassigned) [Example 8b, 3-(1-((endo)-2-azabicyclo[2.1.1]hexan-5-yl)-4-(3-(dimethylamino)azetidin-1-yl)-2-ethyl-6-fluoro-7-(3-hydroxynaphthalen-1-yl)-1H-imidazo[4,5-c]quinolin-8-yl)-3-(4-(hydroxymethyl)-1H-pyrazol-1-yl)propanenitrile], the half-maximal inhibitory concentration (IC50) on KRAS G12D is at most 0.1 µM; at KRAS G12V, 0.1 to 1 µM.
On to `CCc1nc2c(N3CC(N(C)C)C3)nc3c(F)c(-c4cc(O)cc5ccccc45)c(-c4cnco4)cc3c2n1C1C2CNC1C2` (single isomer, unassigned) [Example 6a, 4-(1-((endo)-2-azabicyclo[2.1.1]hexan-5-yl)-4-(3-(dimethylamino)azetidin-1-yl)-2-ethyl-6-fluoro-8-(oxazol-5-yl)-1H-imidazo[4,5-c]quinolin-7-yl)naphthalen-2-ol], for which the values for the IC50 at KRAS G12D and on KRAS G12V were 0.1 to 1 µM and 5 to 10 µM, respectively.
For `CNCCc1nc2c(N3CC(N(C)C)C3)nc3c(F)c(-c4cc(O)cc5ccccc45)c(Cc4ccc(C#N)cc4)cc3c2n1[C@@H]1[C@@H]2CN[C@H]1C2` (relative stereo) [Example 29, 4-((1-((endo)-2-azabicyclo[2.1.1]hexan-5-yl)-4-(3-(dimethylamino)azetidin-1-yl)-6-fluoro-7-(3-hydroxynaphthalen-1-yl)-2-(2-(methylamino)ethyl)-1H-imidazo[4,5-c]quinolin-8-yl)methyl)benzonitrile], in that order: 0.1 to 1 µM and 5 to 10 µM.
As to `CCc1nc2c(-c3ccc(=O)n(CC)c3)nc3c(F)c(-c4cc(O)cc5ccccc45)c(CCC#N)cc3c2n1C1C2CNC1C2` (single isomer, unassigned) [Example 18, 3-(1-((endo)-2-Azabicyclo[2.1.1]hexan-5-yl)-2-ethyl-4-(1-ethyl-6-oxo-1,6-dihydropyridin-3-yl)-6-fluoro-7-(3-hydroxynaphthalen-1-yl)-1H-imidazo[4,5-c]quinolin-8-yl)propanenitrile], the IC50 at KRAS G12D and at KRAS G12V was at most 0.1 µM each time.
`C[C@H](Oc1nc2c(F)c(-c3cccc4cccc(C#N)c34)c(Cl)cc2c2c1ncn2[C@H]1CCN(C(=O)c2nc[nH]n2)[C@H](CC#N)C1)[C@@H]1CCCN1C` [Example 41, 8-(8-chloro-1-((2S,4S)-2-(cyanomethyl)-1-(1H-1,2,4-triazole-3-carbonyl)piperidin-4-yl)-6-fluoro-4-((S)-1-((S)-1-methylpyrrolidin-2-yl)ethoxy)-1H-imidazo[4,5-c]quinolin-7-yl)-1-naphthonitrile]: the IC50 at KRAS G12D is 0.1 to 1 µM; on KRAS G12V, at most 0.1 µM.
